From US20110160196A1, “FACTOR XA INHIBITORS” (Millennium Pharmaceuticals, Inc., priority 2007, published 2011)

target: T1, human plasma protein factor Xa (Homo sapiens, UniProt P00742); assay: Factor Xa IC50 determination (cleavage of paranitroanilide substrate S-2765); type: biochemical; settings: factor Xa 1 nM, S-2765 100 μM, Tris buffered saline pH 7.4, read at 405 nm
T1 construct: The human plasma protein factor Xa was purchased; purchased Haematologic Technologies (Essex Junction, Vt.); host or cells: human plasma
Outline: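 Human plasma factor Xa (1 nM) preincubated 5 min at room temperature with inhibitor (0.01 nM–10 μM) in Tris-buffered saline pH 7.4 with 5 mM CaCl2, 0.1% BSA, 5% DMSO. S-2765 added at 100 μM final; pNA release followed at 405 nm for 2 min. IC50 from four-parameter fit of initial velocities.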

T1 sequence (P00742 235-488 limits assumed): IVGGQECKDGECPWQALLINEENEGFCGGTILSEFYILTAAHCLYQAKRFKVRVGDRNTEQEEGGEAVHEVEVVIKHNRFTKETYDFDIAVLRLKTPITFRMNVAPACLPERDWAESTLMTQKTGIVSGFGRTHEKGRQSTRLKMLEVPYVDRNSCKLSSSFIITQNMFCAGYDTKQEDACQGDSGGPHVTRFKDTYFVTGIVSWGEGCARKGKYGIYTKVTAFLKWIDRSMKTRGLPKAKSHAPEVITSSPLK
T1 sequence (P00742 41-179 partner limits assumed): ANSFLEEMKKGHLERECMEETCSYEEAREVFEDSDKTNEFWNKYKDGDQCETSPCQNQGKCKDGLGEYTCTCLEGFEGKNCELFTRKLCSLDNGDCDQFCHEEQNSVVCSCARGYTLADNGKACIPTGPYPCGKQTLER

`COCCNC(=O)c1cc(-n2ccccc2=O)ccc1-n1cc(CNC(=O)c2ccc(Cl)s2)nn1` [Compound 106, N-((1-(2-((2-Methoxyethyl)carbamoyl)-4-(2-oxopyridin-1(2H)-yl)phenyl)-1H-1,2,3-triazol-4-yl)methyl)-5-chlorothiophene-2-carboxamide] and `NCCNC(=O)c1cc(-n2ccccc2=O)ccc1-n1cc(CNC(=O)c2ccc(Cl)s2)nn1` [Compound 107, N-((1-(2-((2-Aminoethyl)carbamoyl)-4-(2-oxopyridin-1(2H)-yl)phenyl)-1H-1,2,3-triazol-4-yl)methyl)-5-chlorothiophene-2-carboxamide] fall in the same range of IC50: 100 to 500 nM for the first, 100 to 500 nM for the second.

`NC(=O)CNC(=O)c1cc(-n2ccccc2=O)ccc1-n1cc(CNC(=O)c2ccc(Cl)s2)nn1` [Compound 108, N-((1-(2-((2-Amino-2-oxoethyl)carbamoyl)-4-(2-oxopyridin-1(2H)-yl)phenyl)-1H-1,2,3-triazol-4-yl)methyl)-5-chlorothiophene-2-carboxamide] and `NCCCNC(=O)c1cc(-n2ccccc2=O)ccc1-n1cc(CNC(=O)c2ccc(Cl)s2)nn1` [Compound 112, N-((1-(2-(3-aminopropylcarbamoyl)-4-(2-oxopyridin-1(2H)-yl)phenyl)-1H-1,2,3-triazol-4-yl)methyl)-5-chlorothiophene-2-carboxamide] fall in the same range of IC50: 100 to 500 nM for the first, 100 to 500 nM for the second.

`CN(C)CCNC(=O)c1cc(-n2ccccc2=O)ccc1-n1cc(CNC(=O)c2ccc(Cl)s2)nn1` [Compound 109, N-((1-(2-((2-(Dimethylamino)ethyl)carbamoyl)-4-(2-oxopyridin-1(2H)-yl)phenyl)-1H-1,2,3-triazol-4-yl)methyl)-5-chlorothiophene-2-carboxamide] and `CN(C)CCN(C)C(=O)c1cc(-n2ccccc2=O)ccc1-n1cc(CNC(=O)c2ccc(Cl)s2)nn1` [Compound 111, 5-Chloro-N-((1-(2-((2-(dimethylamino)ethyl)(methyl)carbamoyl)-4-(2-oxopyridin-1(2H)-yl)phenyl)-1H-1,2,3-triazol-4-yl)methyl)thiophene-2-carboxamide] cannot be ordered by IC50: no more than 100 nM for the first, 100 to 500 nM for the second.

`CNCCN(C)C(=O)c1cc(-n2ccccc2=O)ccc1-n1cc(CNC(=O)c2ccc(Cl)s2)nn1` [Compound 110, 5-Chloro-N-((1-(2-(methyl(2-(methylamino)ethyl)carbamoyl)-4-(2-oxopyridin-1(2H)-yl)phenyl)-1H-1,2,3-triazol-4-yl)methyl)thiophene-2-carboxamide] and `CN(C)Cc1cc(-n2ccccc2=O)ccc1-n1cc(CNC(=O)c2ccc(Cl)s2)nn1` [Compound 121, 5-Chloro-N-((1-(2-((dimethylamino)methyl)-4-(2-oxopyridin-1(2H)-yl)phenyl)-1H-1,2,3-triazol-4-yl)methyl)thiophene-2-carboxamide] cannot be ordered by IC50: 100 to 500 nM for the first, no more than 100 nM for the second.

`O=C(NCc1cn(-c2ccc(-n3ccccc3=O)cc2C(=O)N2CCNCC2)nn1)c1ccc(Cl)s1` [Compound 113, 5-Chloro-N-((1-(4-(2-oxopyridin-1(2H)-yl)-2-(piperazine-1-carbonyl)phenyl)-1H-1,2,3-triazol-4-yl)methyl)thiophene-2-carboxamide] and `O=C1CN(C(=O)c2cc(-n3ccccc3=O)ccc2-n2cc(CNC(=O)c3ccc(Cl)s3)nn2)CCN1` [Compound 114, 5-Chloro-N-((1-(2-(2-oxopiperazine-4-carbonyl)-4-(2-oxopyridin-1(2H)-yl)phenyl)-1H-1,2,3-triazol-4-yl)methyl)thiophene-2-carboxamide] cannot be ordered by IC50: 100 to 500 nM for the first, no more than 100 nM for the second.

`O=C(NCc1cn(-c2ccc(-n3ccccc3=O)cc2C(=O)N2CCC(O)CC2)nn1)c1ccc(Cl)s1` [Compound 115, 5-Chloro-N-((1-(2-(4-hydroxypiperidine-1-carbonyl)-4-(2-oxopyridin-1(2H)-yl)phenyl)-1H-1,2,3-triazol-4-yl)methyl)thiophene-2-carboxamide] and `NC(=O)C1CCN(C(=O)c2cc(-n3ccccc3=O)ccc2-n2cc(CNC(=O)c3ccc(Cl)s3)nn2)CC1` [Compound 116, 1-(2-(4-((5-Chlorothiophene-2-carboxamido)methyl)-1H-1,2,3-triazol-1-yl)-5-(2-oxopyridin-1(2H)-yl)benzoyl)piperidine-4-carboxamide] fall in the same range of IC50: 100 to 500 nM for the first, 100 to 500 nM for the second.

`O=C(NCc1cn(-c2ccc(-n3ccccc3=O)cc2C(=O)NCc2nnn[nH]2)nn1)c1ccc(Cl)s1` [Compound 117, N-((1-(2-(((1H-Tetrazol-5-yl)methyl)carbamoyl)-4-(2-oxopyridin-1(2H)-yl)phenyl)-1H-1,2,3-triazol-4-yl)methyl)-5-chlorothiophene-2-carboxamide] and `O=C(NCc1cn(-c2ccc(-n3ccccc3=O)cc2C(=O)Nc2ccncc2)nn1)c1ccc(Cl)s1` [Compound 118, 5-Chloro-N-((1-(4-(2-oxopyridin-1(2H)-yl)-2-(pyridin-4-ylcarbamoyl)phenyl)-1H-1,2,3-triazol-4-yl)methyl)thiophene-2-carboxamide] cannot be ordered by IC50: no more than 100 nM for the first, 100 to 500 nM for the second.

`O=C(NCc1cn(-c2ccc(-n3ccccc3=O)cc2CO)nn1)c1ccc(Cl)s1` [Compound 119, 5-Chloro-N-((1-(2-(hydroxymethyl)-4-(2-oxopyridin-1(2H)-yl)phenyl)-1H-1,2,3-triazol-4-yl)methyl)thiophene-2-carboxamide] and `NCc1cc(-n2ccccc2=O)ccc1-n1cc(CNC(=O)c2ccc(Cl)s2)nn1` [Compound 120, N-((1-(2-(Aminomethyl)-4-(2-oxopyridin-1(2H)-yl)phenyl)-1H-1,2,3-triazol-4-yl)methyl)-5-chlorothiophene-2-carboxamide] cannot be ordered by IC50: no more than 100 nM for the first, no more than 100 nM for the second.

`O=C(NCc1cn(-c2ccc(-n3ccccc3=O)cc2-c2ccncc2)nn1)c1ccc(Cl)s1` [Compound 125, 5-Chloro-N-((1-(4-(2-oxopyridin-1(2H)-yl)-2-(pyridin-4-yl)phenyl)-1H-1,2,3-triazol-4-yl)methyl)thiophene-2-carboxamide] and `O=C(NCc1cn(-c2ccc(-n3ccccc3=O)cc2-c2cccnc2)nn1)c1ccc(Cl)s1` [Compound 126, 5-Chloro-N-((1-(4-(2-oxopyridin-1(2H)-yl)-2-(pyridin-3-yl)phenyl)-1H-1,2,3-triazol-4-yl)methyl)thiophene-2-carboxamide] cannot be ordered by IC50: no more than 100 nM for the first, no more than 100 nM for the second.

`O=C(NCc1cn(-c2ccc(-n3ccccc3=O)cc2-c2ccnc(Cl)c2)nn1)c1ccc(Cl)s1` [Compound 133, 5-Chloro-N-((1-(2-(2-chloropyridin-4-yl)-4-(2-oxopyridin-1(2H)-yl)phenyl)-1H-1,2,3-triazol-4-yl)methyl)thiophene-2-carboxamide] and `O=C(NCc1cn(-c2ccc(-n3ccccc3=O)cc2-c2ccnc(F)c2)nn1)c1ccc(Cl)s1` [Compound 134, 5-Chloro-N-((1-(2-(2-fluoropyridin-4-yl)-4-(2-oxopyridin-1(2H)-yl)phenyl)-1H-1,2,3-triazol-4-yl)methyl)thiophene-2-carboxamide] cannot be ordered by IC50: no more than 100 nM for the first, no more than 100 nM for the second.

`O=C(NCc1cn(-c2ccc(-n3ccccc3=O)cc2-c2ccc(Cl)nc2)nn1)c1ccc(Cl)s1` [Compound 135, 5-Chloro-N-((1-(2-(6-chloropyridin-3-yl)-4-(2-oxopyridin-1(2H)-yl)phenyl)-1H-1,2,3-triazo1-4-yl)methyl)thiophene-2-carboxamide] and `O=C(NCc1cn(-c2ccc(-n3ccccc3=O)cc2-c2ccnc(O)c2)nn1)c1ccc(Cl)s1` [Compound 137, 5-Chloro-N-((1-(2-(2-hydroxypyridin-4-yl)-4-(2-oxopyridin-1(2H)-yl)phenyl)-1H-1,2,3-triazol-4-yl)methyl)thiophene-2-carboxamide] cannot be ordered by IC50: no more than 100 nM for the first, no more than 100 nM for the second.
